What was measured:
[1] = biological target: Amyloid-beta precursor protein (Homo sapiens) (UniProt P05067); assay: Inhibition of self-induced amyloid beta 42 (unknown origin) aggregation at 20 uM incubated for 46 to 48 hrs by thioflavin-T fluorescence assay relative to control
[2] = system: Mus musculus; assay: Acute toxicity in mouse assessed as abnormal changes in kidney at 2000 mg/kg, po measured continuously for first 4 hrs and intermittently for next 24 hrs and occasionally for 14 days by hematoxylin and eosin staining based microscopic method; format: organism-based; conditions: in vivo
[3] = system: Mus musculus; assay: Toxicity in ICR mouse assessed as emesis at 5 to 10 mg/kg, po administered for 10 consecutive days; format: organism-based; conditions: in vivo
[4] = system: BV-2; assay: Inhibition of LPS-induced intracellular ROS production in mouse BV2 cells assessed as mean fluorescence intensity at 5 uM incubated with LPS for 18 hrs followed by compound addition measured after 36 hrs by DCFH-DA probe based flow cytometry (reference value: 493530); format: functional
[5] = system: PC-12; assay: Neuroprotective activity against H2O2-induced apoptosis in rat PC12 cells assessed as late apoptotic cells at 5 uM after 24 hrs by Annexin V-FITC/propidium iodide staining-based flow cytometry (reference value: 25.3%); format: functional
[6] = biological target: T1, Amine oxidase [flavin-containing] B (Homo sapiens, UniProt P27338); assay: Inhibition of human MAO-B using p-tyramine as substrate incubated for 15 mins followed by substrate addition measured for 20 mins by fluorescence assay
T1 sequence (P27338 whole entry): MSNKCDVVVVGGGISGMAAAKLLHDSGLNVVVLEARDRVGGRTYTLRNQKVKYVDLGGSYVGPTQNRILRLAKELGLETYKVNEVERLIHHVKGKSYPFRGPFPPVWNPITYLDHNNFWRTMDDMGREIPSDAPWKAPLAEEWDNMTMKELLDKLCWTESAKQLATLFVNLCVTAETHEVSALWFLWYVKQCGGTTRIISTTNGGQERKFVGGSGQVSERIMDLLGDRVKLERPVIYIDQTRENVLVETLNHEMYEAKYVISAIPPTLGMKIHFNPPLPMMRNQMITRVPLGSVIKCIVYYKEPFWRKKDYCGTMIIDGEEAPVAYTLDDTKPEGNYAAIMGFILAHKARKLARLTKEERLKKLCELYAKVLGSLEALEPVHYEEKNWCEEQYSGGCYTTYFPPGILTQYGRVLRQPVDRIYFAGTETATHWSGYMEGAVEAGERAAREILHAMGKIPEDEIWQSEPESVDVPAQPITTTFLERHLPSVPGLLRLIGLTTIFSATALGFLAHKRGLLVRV

[7] = Antioxidant activity assessed as trolox equivalent of AAPH-induced radical scavenging activity preincubated for 15 mins followed by AAPH addition measured every minute for 120 mins by ORAC-FL based fluorescein assay; format: functional
[8] = Antioxidant activity assessed as ABTS radical cation scavenging activity by measuring trolox equivalent antioxidant capacity measured at 6 mins; format: functional
[9] = organism: Homo sapiens; assay: Selectivity index, ratio of IC50 for human serum BuChE to IC50 for human erythrocyte AChE
[10] = system: PC-12; assay: Neuroprotective activity against H2O2-induced apoptosis in rat PC12 cells assessed as late apoptotic cells at 2.5 uM after 24 hrs by Annexin V-FITC/propidium iodide staining-based flow cytometry (reference value: 25.3%); format: functional
[11] = system: PC-12; assay: Neuroprotective activity against H2O2-induced apoptosis in rat PC12 cells assessed as viable cells at 10 uM after 24 hrs by Annexin V-FITC/propidium iodide staining-based flow cytometry (reference value: 68.4%); format: functional; conditions: PC-12, 24 h, read-out: Activity
[12] = biological target: Cholinesterase (Equus caballus) (UniProt P81908); assay: Inhibition of equine serum BuChE at 100 uM using butyrylthiocholine iodide as substrate incubated for 5 mins followed by substrate addition measured after 180 secs by Ellman's method relative to control
Sequence of Cholinesterase (Equus caballus) (P81908 whole entry): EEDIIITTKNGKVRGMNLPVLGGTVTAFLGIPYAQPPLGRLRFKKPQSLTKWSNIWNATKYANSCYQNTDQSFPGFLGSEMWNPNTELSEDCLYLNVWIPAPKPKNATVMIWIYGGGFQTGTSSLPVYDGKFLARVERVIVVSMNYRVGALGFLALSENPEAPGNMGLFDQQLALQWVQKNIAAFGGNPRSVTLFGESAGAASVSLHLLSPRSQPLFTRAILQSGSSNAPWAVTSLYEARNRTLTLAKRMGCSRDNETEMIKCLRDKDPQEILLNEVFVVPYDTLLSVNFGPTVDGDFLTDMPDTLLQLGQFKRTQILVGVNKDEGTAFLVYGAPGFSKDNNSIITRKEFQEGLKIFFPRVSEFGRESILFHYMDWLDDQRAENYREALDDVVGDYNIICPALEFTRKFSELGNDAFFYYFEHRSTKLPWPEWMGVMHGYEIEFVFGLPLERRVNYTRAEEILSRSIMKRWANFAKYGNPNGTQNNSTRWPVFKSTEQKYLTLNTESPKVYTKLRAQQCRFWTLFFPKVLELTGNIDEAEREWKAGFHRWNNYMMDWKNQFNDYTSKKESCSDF

[13] = system: Mus musculus; assay: Toxicity in ICR mouse assessed as mouse survival at 5 to 10 mg/kg, po administered for 10 consecutive days; format: organism-based; conditions: in vivo
[14] = Effective permeability of the compound at […] after 16 hrs by PAMPA-BBB assay; format: ADME; conditions: read-out: Peff
[15] = system: Mus musculus; assay: Acute toxicity in mouse assessed as abnormal changes in brain at 2000 mg/kg, po measured continuously for first 4 hrs and intermittently for next 24 hrs and occasionally for 14 days by hematoxylin and eosin staining based microscopic method; format: organism-based; conditions: in vivo
[16] = system: BV-2; assay: Inhibition of LPS-induced intracellular ROS production in mouse BV2 cells assessed as mean fluorescence intensity at 20 uM incubated with LPS for 18 hrs followed by compound addition measured after 36 hrs by DCFH-DA probe based flow cytometry (reference value: 493530); format: functional
[17] = system: PC-12; assay: Cytotoxicity against rat PC12 cells assessed as decrease in cell viability at 30 uM after 24 hrs by MTT assay; format: cell-based; conditions: pc-12, 24 h
[18] = system: PC-12; assay: Neuroprotective activity against H2O2-induced oxidative stress in rat PC12 cells assessed as increase in cell viability pretreated for 4 hrs followed by H2O2 challenge measured after 24 hrs by MTT assay; format: functional, cell-based
[19] = biological target: Acetylcholinesterase (Homo sapiens, UniProt P22303); assay: Inhibition of human erythrocyte AChE using acetylthiocholine chloride as substrate incubated for 5 mins followed by substrate addition measured after 180 secs by Ellman's method
Sequence of Acetylcholinesterase (P22303 whole entry): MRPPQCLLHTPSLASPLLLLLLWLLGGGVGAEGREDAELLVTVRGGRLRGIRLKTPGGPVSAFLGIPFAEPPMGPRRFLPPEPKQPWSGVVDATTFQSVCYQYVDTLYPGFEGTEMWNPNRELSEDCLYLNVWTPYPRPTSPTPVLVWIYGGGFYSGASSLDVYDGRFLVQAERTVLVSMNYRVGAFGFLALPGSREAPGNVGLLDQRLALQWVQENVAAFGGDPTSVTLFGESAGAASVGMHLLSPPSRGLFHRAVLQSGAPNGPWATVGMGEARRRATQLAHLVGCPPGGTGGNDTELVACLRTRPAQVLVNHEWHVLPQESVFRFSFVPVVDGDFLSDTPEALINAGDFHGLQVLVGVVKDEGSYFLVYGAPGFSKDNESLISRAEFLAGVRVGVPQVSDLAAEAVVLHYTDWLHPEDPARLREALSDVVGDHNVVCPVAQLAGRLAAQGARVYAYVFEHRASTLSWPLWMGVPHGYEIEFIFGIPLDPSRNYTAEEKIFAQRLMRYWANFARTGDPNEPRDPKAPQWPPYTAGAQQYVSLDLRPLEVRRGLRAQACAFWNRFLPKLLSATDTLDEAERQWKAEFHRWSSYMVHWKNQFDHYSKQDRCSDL

[20] = system: PC-12; assay: Reversal of H2O2-induced calcium overload in rat PC12 cells assessed as mean fluorescence intensity at 10 uM after 48 hrs by Fluo-3/AM probe based flow cytometry (reference value: 454014); format: functional
[21] = Antioxidant activity assessed as DPPH radical scavenging activity measured after 30 mins incubation in dark by UV-Visible spectrophotometric analysis; format: functional
[22] = system: Mus musculus; assay: Acute toxicity in mouse assessed as mortality at 677 to 2000 mg/kg, po measured continuously for first 4 hrs and intermittently for next 24 hrs and occasionally for 14 days; format: organism-based; conditions: in vivo
[23] = biological target: Amyloid-beta precursor protein (Homo sapiens) (UniProt P05067); assay: Inhibition of AChE-induced amyloid beta 40 (unknown origin) aggregation at 100 uM by thioflavin-T fluorescence assay relative to control
[24] = system: PC-12; assay: Reversal of H2O2-induced calcium overload in rat PC12 cells after 48 hrs by Fluo-3/AM probe based flow cytometry; format: functional, cell-based
[25] = system: PC-12; assay: Neuroprotective activity against H2O2-induced apoptosis in rat PC12 cells assessed as viable cells at 5 uM after 24 hrs by Annexin V-FITC/propidium iodide staining-based flow cytometry (reference value: 68.4%); format: functional; conditions: PC-12, 24 h, read-out: Activity
[26] = system: PC-12; assay: Neuroprotective activity against H2O2-induced apoptosis in rat PC12 cells assessed as viable cells at 2.5 uM after 24 hrs by Annexin V-FITC/propidium iodide staining-based flow cytometry (reference value: 68.4%); format: functional; conditions: PC-12, 24 h, read-out: Activity
[27] = system: PC-12; assay: Neuroprotective activity against H2O2-induced apoptosis in rat PC12 cells assessed as necrotic cells at 2.5 uM after 24 hrs by Annexin V-FITC/propidium iodide staining-based flow cytometry (reference value: 4.9%); format: functional
[28] = system: Mus musculus; assay: Toxicity in ICR mouse assessed as diarrhea at 5 to 10 mg/kg, po administered for 10 consecutive days; format: organism-based; conditions: in vivo
[29] = system: BV-2; assay: Inhibition of LPS-induced intracellular ROS production in mouse BV2 cells assessed as mean fluorescence intensity incubated with LPS for 18 hrs followed by compound addition measured after 36 hrs by DCFH-DA probe based flow cytometry; format: functional, cell-based

Sequence of Amyloid-beta precursor protein (Homo sapiens) (P05067 whole entry): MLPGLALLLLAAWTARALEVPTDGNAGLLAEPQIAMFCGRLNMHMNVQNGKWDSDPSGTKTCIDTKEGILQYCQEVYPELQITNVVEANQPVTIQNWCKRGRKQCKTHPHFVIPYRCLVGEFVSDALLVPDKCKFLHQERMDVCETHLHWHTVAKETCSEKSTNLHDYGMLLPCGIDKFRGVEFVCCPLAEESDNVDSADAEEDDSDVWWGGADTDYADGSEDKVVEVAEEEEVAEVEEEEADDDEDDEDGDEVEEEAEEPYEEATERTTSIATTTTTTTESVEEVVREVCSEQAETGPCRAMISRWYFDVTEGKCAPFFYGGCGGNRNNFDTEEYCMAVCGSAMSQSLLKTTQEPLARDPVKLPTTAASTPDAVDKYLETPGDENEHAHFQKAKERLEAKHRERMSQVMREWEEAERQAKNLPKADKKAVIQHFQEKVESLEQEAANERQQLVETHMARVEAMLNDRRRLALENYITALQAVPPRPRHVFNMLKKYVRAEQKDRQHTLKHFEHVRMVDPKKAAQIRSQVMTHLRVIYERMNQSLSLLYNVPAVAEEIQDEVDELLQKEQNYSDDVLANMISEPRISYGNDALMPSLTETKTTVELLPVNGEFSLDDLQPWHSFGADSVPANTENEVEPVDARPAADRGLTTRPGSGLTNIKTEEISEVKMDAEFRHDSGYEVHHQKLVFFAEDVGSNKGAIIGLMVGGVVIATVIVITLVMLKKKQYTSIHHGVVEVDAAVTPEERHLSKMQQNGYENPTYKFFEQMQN

## CC(C)(C)c1cc(/C=C/C(=O)NCCC2CCN(Cc3ccccc3F)CC2)cc(C(C)(C)C)c1O
[1]
  inhibition: 43.5 to 56.7%
[2]
  Activity: Non-Toxic
[3]
  Activity: Non-Toxic
[4]
  Flu intensity: 479700
[5]
  Activity: 9%
[6]
  IC50: 7.4 µM
[7]
  Activity (mmolequiv/mmol): 1.64
[8]
  Activity (mmolequiv/mmol): 0.82
[9]
  Ratio IC50: > 133
[10]
  Activity: 14.8%
[11]
  viability at 10 µM: 92.4%
[12]
  inhibition: 48%
[13]
  Activity: Non-Toxic
[14]
  Papp at 16 h: 5.5 ×10⁻⁶ cm/s
[15]
  Activity: Non-Toxic
[16]
  Flu intensity: 310450
[17]
  Activity: Toxic
[18]
  Activity: Dose-dependent effect
[19]
  IC50: 0.75 µM
[20]
  Flu intensity: 157903
[21]
  IC50: 55.9 µM
[22]
  Activity: Non-Toxic
[23]
  inhibition: 40.1%
[24]
  Activity: Dose-dependent effect
[25]
  viability at 5 µM: 88.3%
[26]
  viability at 2.5 µM: 81.5%
[27]
  Activity: 3.5%
[28]
  Activity: Non-Toxic
[29]
  inhibition: Dose-dependent effect

Source: ChEMBL document CHEMBL4270597, “Donepezil-butylated hydroxytoluene (BHT) hybrids as Anti-Alzheimer's disease agents with cholinergic, antioxidant, and neuroprotective properties” (Eur J Med Chem, 2018)
